The record followed here is EP0571928A1, “Acyclic Tocotrienol analogs in the treatment of hypercholesterolemia and hyperlipidemia” (Bristol-Myers Squibb Company, priority 1992, dated 1993).

The term inhibition denotes the percentage by which the read-out fell short of the control.

The subject of the first assay is cholesterol biosynthesis in HepG2 cells. As to the kind of experiment: HepG2 cell culture model - 14C-acetate incorporation assay (cholesterol synthesis). Type of assay: cell-based. The conditions noted are these: 3-4 hours incubation, 2-14C-acetate incorporation into digitonin-precipitable sterols, vs. vehicle controls. As for the experimental part: HepG2 Cell Culture Model - 14C-Acetate Incorporation Assay
After 16 hours in LDS containing media, test compounds were added in dimethylsulfoxide vehicle (0.5% v/v final conc.) for an incubation period of 3-4 hours. Cholesterol synthesis was then directly determined by 2-14C-acetate (1.8 mCi/mmol, 0.5 µCi/ml) incorporation for 30 to 60 minutes (previously shown to be time-linear) into total digitonin-precipitable sterols. […] Percent inhibition was calculated from the average of duplicates vs. triplicate vehicle controls conducted simultaneously.
As to “4-[2-(5,9,13)-Trimethyl-4(E), 8(E), 12-tetradecatrienyl)-1,3-dithian-2-yl]phenol [Example 34]”, the “Sterol Biosynthesis % Inhibition 10µM” value was 43%.

As to “2-Hydroxy-4,6-Dimethyl-5-[(5,9,13-Trimethyl-4(E), 8(E), 12-Tetradecatrienyl)oxy]-1,3-Benzenedimethanol [Example 17]”, the “Sterol Biosynthesis % Inhibition 10µM” value is listed as 72%.

Consider “3,5-Dimethoxy-4-[(5,9,13-Trimethyl-4(E), 8(E), 12-tetradecatrienyl)oxy]phenol [Example 16]”, for which the “Sterol Biosynthesis % Inhibition 10µM” value amounted to 66%.

As for “1-(4-Hydroxyphenyl)-6,10,14-Trimethyl-5(E), 9(E), 13-Pentadecatrien-1- One [Example 35]”, the “Sterol Biosynthesis % Inhibition 10µM” value is reported as 78%.

Still in this assay, the particulars now being: Homo sapiens, 3-4 hours incubation, 2-14C-acetate incorporation into digitonin-precipitable sterols, vs. vehicle controls, read-out: Sterol Biosynthesis % Inhibition 10µM.
On to `CC(=O)c1cc(O)ccc1OCCC/C=C(\C)CC/C=C(\C)CCC=C(C)C` [Example 20, 1-[5-Hydroxy-2-(5,9,13-Trimethyl-4(E), 8(E),12-tetradecatrienyloxy)phenyl]ethanone], for which the inhibition at 10 µM came to 69%.

On to `CC(C)=CCC/C(C)=C/CC/C(C)=C/CCCOc1ccccc1` [Example 5, (5,9,13-Trimethyl-4(E), 8(E),12-tetradecatrienyl)oxy benzene], for which the inhibition at 10 µM was 12%.

`CC(C)=CCC/C(C)=C/CC/C(C)=C/COc1ccc(O)c(C)c1C` [Example 9, 2,3-Dimethyl-4-[(3,7,11-Trimethyl-2(E), 6(E), 10-dodecatrienyl)oxy]phenol]: the inhibition at 10 µM was 36%.

In the case of `CC(C)=CCC/C(C)=C/CC/C(C)=C/CCCOc1ccc(O)c(CCO)c1` [Example 18, 2-Hydroxy-5-[(5,9,13-Trimethyl-4(E), 8(E), 12-tetradecatrienyl)oxy]benzene ethanol], the inhibition at 10 µM was found to be 64%.

As for `CC(C)=CCC/C(C)=C/CC/C(C)=C/CCCOc1c(C)cc(O)c(C)c1C` [Example 15, 2,3,5-Trimethyl-4-[(5,9,13-Trimethyl-4(E),8(E), 12-tetradecatrienyl)oxy] phenol], the inhibition at 10 µM was 48%.

For the compound `CC(C)=CCC/C(C)=C/CC/C(C)=C/CCCOc1ccccc1O` [Example 6, 2-[(5,9,13-Trimethyl-4(E), 8(E),12-tetradecatrienyl)oxy]phenol], the inhibition at 10 µM turned out to be 10%.

With `CC(C)=CCC/C(C)=C/CC/C(C)=C/CCCOc1c(C)cc(N)cc1C` [Example 26, 3,5-Dimethyl-4-[(5,9,13-Trimethyl-4(E), 8(E),12-tetradecatrienyl)oxy] aniline], the inhibition at 10 µM amounted to 51%.

On to `CC(C)=CCC/C(C)=C/CC/C(C)=C/CCCS(=O)(=O)c1ccc(O)cc1` [Example 32, 4-[(5,9,13-trimethyl-4(E),8(E),12-tetradecatrienyl)sulfonyl]phenol], for which the inhibition at 10 µM came out at 38%.

As for `CC(C)=CCC/C(C)=C/CC/C(C)=C/CCCCc1ccc(O)cc1` [Example 33, 4-[6,10,14-Trimethyl-5(E), 9(E), 13-Pentadecatrienyl]phenol], the inhibition at 10 µM was found to be 50%.

Regarding `CC(C)=CCC/C(C)=C/CC/C(C)=C/CCCOc1ccc(S(N)(=O)=O)cc1` [Example 28, 4-[(5,9,13-Trimethyl-4(E), 8(E),12-Tetradecatrienyl)oxy] benzenesulfonamide], the inhibition at 10 µM came out at 58%.

With `CC(C)=CCC/C(C)=C/CC/C(C)=C/CCCOc1c(F)c(F)c(O)c(F)c1F` [Example 19, 2,3,5,6-Tetrafluoro-4-[(5,9,13-Trimethyl-4(E), 8(E)-,12-tetradecatrienyl)oxy]phenol], the inhibition at 10 µM was 55%.

Take `CC(C)=CCC/C(C)=C/CC/C(C)=C/CCC[S+]([O-])c1ccc(O)cc1` (stereo not shown) [Example 31, 4-[(5,9,13-trimethyl-4(E),8(E),12-tetradecatrienyl)sulfinyl]phenol]: the inhibition at 10 µM is 47%.

As to `CC(C)=CCC/C(C)=C/CC/C(C)=C/CCC(C)(C)Oc1ccc(O)cc1` [Example 39, 4-[(1,1,5,9,13-Pentamethyl-4(E), 8(E), 12-tetradecatrienyl)oxy]phenol hydrate], the inhibition at 10 µM is 37%.

For `CC(C)=CCC/C(C)=C/CC/C(C)=C/CCCOc1ccc(B2OB(c3ccc(OCCC/C=C(\C)CC/C=C(\C)CCC=C(C)C)cc3)OB(c3ccc(OCCC/C=C(\C)CC/C=C(\C)CCC=C(C)C)cc3)O2)cc1` [Example 29, 2,4,6-Tris-[4-[(5,9,13-Trimethyl-4(E), 8(E),12-tetradecatrienyl)oxy]phenyl]boroxin], the inhibition at 10 µM amounted to 99%.

For `CC(C)=CCC/C(C)=C/CC/C(C)=C/CCCOc1cccc(CO)c1` [Example 22, 3-[(5,9,13-Trimethyl-4(E), 8(E),12-Tetradecatrienyl)oxy]benzenemethanol], the inhibition at 10 µM amounted to 73%.

Consider `CC(C)=CCC/C(C)=C/CC/C(C)=C/CCCOc1ccc(C(N)=O)cc1` [Example 23, 4-[(5,9,13-Trimethyl-4(E),8(E),12-tetradecatrienyl)oxy]benzamide], for which the inhibition at 10 µM turned out to be 42%.

Regarding `CC(C)=CCC/C(C)=C/CC/C(C)=C/CCCNc1ccc(O)cc1` [Example 36, 4-[(5,9,13-Trimethyl-4(E), 8(E),12-tetradecatrienyl)amino]phenol], the inhibition at 10 µM is 43%.

Turning to `CC(C)=CCC/C(C)=C/CC/C(C)=C/CCCOc1cccc(O)c1` [Example 7, 3-[(5,9,13-Trimethyl-4(E), 8(E),12-tetradecatrienyl)oxy]phenol], the inhibition at 10 µM is 38%.

With `COC(=O)Nc1cc(C)c(OCCC/C=C(\C)CC/C=C(\C)CCC=C(C)C)c(C)c1` [Example 27, N-[[3,5-Dimethyl-4-[(5,9,13-Trimethyl-4(E), 8(E), 12-tetradecatrienyl)oxy]]phenyl]methyl carbamate], the inhibition at 10 µM was 47%.

Consider `CC(C)=CCC/C(C)=C/CC/C(C)=C/CCCOc1ccc(N)cc1` [Example 24, 4-[(5,9,13-Trimethyl-4(E), 8(E),12-tetradecatrienyl)oxy]aniline], for which the inhibition at 10 µM came out at 65%.

On to `CC(C)=CCC/C(C)=C/CC/C(C)=C/CCCN(C(=O)OC(C)(C)C)c1ccc(O)cc1` [Example 37, 1,1-Dimethylethyl-(4-Hydroxyphenyl)-(5,9,13-Trimethyl-4(E), 8(E), 12-tetradecatrienyl) carbamate], for which the inhibition at 10 µM came to 79%.
